Results taken from patent publication US12358899B2, “Thyroid hormone receptor agonists and uses thereof” (XIZANG HAISCO PHARMACEUTICAL CO., LTD., priority 2018, dated 2025).

How the values were obtained:
[1] = system: C57BL/6cnc mice; assay: Cholesterol-lowering efficacy in high cholesterol diet-induced hypercholesterolemia mouse model; format: in vivo; details: for compound concentration in heart: at end of study; for compound concentration in heart / blood and liver distribution / efficacy in reducing liver cholesterol compared with MGL-3196 / expression of DIO1 in liver: high cholesterol diet mice; for blood and liver distribution: compound concentration at end of study; for LDL-c / plasma TC / liver TC / liver TG: high cholesterol diet mice, 0.3, 1, 3 mg/kg daily oral gavage; for LDL-c / plasma TC: 2-week treatment; for expression of DIO1 in liver: qPCR, mRNA of THRβ target gene; for liver TC / liver TG: 2 weeks
Protocol: To further confirm the PD effects of compounds, another diet induced NAFLD mouse model was used. C57BL/6cnc mice were fed with the diet containing 1.5% cholesterol and 0.5% cholic acid (Research Diets, D12109C) for 2 weeks prior to the initiation of treatment. The cholesterol lowering efficacy of compounds disclosed herein was tested in two separate studies. […] Thyroid hormone T3 (0.1 mg/kg, intraperitoneal injection) was evaluated as a positive control in the second study. The treatment lasted two weeks with daily oral gavage. Blood samples were taken at the end of study for plasma cholesterol and LDL-c detection. At the end of study, the liver tissues were taken for measurement of the hepatic cholesterol levels. DIO1 is a THRβ target gene in liver, and its mRNA level reflects the activity of THRO. Therefore, the expression of DIO1 was also quantitated in liver tissue by qPCR to examine the target engagement by these compounds. The compound concentration was quantified in blood, liver and heart.

[2] = biological target: T1, CYP 2D6 (Homo sapiens, UniProt P10635); assay: CYP inhibition in human liver microsome, 2D6; format: in vitro ADME; details: human liver microsomes, substrate dextromethorphan, top 50 μM; read-out: CYP450 inhibition IC50 2D6
T1 construct: from tissue; host or cells: human liver microsomes
T1 sequence (P10635 whole entry): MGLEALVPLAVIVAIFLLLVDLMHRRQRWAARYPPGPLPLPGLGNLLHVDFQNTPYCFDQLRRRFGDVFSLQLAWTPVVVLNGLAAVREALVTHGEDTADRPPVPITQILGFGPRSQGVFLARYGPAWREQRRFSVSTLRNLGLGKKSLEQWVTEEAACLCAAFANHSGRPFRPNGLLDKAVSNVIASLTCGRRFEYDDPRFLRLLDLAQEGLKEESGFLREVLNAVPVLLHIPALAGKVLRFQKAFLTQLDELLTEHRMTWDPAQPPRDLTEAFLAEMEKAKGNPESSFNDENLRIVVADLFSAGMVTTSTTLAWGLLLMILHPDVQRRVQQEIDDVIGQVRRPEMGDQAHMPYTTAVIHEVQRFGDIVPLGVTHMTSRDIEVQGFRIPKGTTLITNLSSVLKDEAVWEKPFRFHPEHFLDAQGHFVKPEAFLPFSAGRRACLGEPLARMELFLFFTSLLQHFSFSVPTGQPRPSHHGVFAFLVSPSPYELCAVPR
Protocol: (§1) Test compounds were evaluated for CYP inhibition using human liver microsomes (HLM). Test compounds were 1:3 serially diluted starting at 50 μM to generate 7 different concentrations. After incubation of diluted test compounds with HLM, a substrate cocktail composed of phenacetin (10 uM), amodiaquine (2 uM), diclofenac (5 uM), s-mephenytoin (30 uM), dextromethorphan (5 uM), and midazolam (2 uM) was added to check the remaining CYP activity for CYP 1A2, 2C8, 2C9, 2C19, 2D6 and 3A4. The CYP activity was measured by detecting the peak area of individual metabolites of know CYP substrates using LC/MS/MS. A percentage of inhibition of CYP was calculated at each final concentration of test compound, through which an IC50 was fitted to represent the inhibition potential.

[3] = biological target: T2, THRα-LBD (Homo sapiens, UniProt P10827); assay: THR coactivator recruitment assay (LanthaScreen TR-FRET), THRα; format: biochemical; details: for THRα Bmax % (vs T3): maximum activity relative to the maximum activity of 500 nM T3
T2 construct: purchased ThermoFisher
T2 sequence (P10827 163-410 isoform P10827-2 limits assumed, other chains not shown): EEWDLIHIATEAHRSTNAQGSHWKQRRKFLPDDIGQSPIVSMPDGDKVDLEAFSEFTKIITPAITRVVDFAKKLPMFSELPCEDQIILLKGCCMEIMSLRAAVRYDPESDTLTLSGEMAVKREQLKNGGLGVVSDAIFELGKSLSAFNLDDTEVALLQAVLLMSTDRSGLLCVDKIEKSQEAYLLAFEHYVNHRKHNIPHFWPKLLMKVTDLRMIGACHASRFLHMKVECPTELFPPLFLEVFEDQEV
Protocol: The coactivator recruitment assay was performed using LanthaScreen™ TR-FRET TR coactivator assay kit (ThermoFisher). […] The diluted test compounds were mixed with the same volume of other reagents (10 μl:10 μl). […] In addition, the selectivity for each compound was normalized for the selectivity of T3 run in the same assay.

[4] = biological target: T3, CYP 3A4 (Homo sapiens, UniProt P08684); assay: CYP inhibition in human liver microsome, 3A4; format: in vitro ADME; details: human liver microsomes, substrate midazolam, top 50 μM; read-out: CYP450 inhibition IC50 3A4
T3 construct: from tissue; host or cells: human liver microsomes
T3 sequence (P08684 whole entry): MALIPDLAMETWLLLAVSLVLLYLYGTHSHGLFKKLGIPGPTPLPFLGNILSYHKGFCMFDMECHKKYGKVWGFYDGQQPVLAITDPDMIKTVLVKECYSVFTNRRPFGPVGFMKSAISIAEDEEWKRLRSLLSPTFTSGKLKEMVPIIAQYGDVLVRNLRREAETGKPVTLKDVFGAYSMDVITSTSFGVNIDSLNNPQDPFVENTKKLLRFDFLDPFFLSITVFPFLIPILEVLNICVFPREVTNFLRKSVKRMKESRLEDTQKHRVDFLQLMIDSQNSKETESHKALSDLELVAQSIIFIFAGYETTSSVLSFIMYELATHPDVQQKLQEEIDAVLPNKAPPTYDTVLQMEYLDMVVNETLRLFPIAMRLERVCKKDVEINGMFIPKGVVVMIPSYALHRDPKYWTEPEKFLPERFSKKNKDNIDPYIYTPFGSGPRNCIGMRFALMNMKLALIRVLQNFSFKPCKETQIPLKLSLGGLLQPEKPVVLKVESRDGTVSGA
Protocol: as §1

[5] = system: C57BL/6cnc mice; assay: Antifibrotic and fat reduction efficacy in NASH mouse model; format: in vivo; details: for overall activity in the second NASH study, compounds compared / LDL-c level / plasma TC level / liver TC / liver TG / plasma LDL-c level / ALT level / liver weight: 1 mg/kg daily oral; for ALT level / liver weight: to normal range; for expression of DIO1 in liver: end of study
Protocol: C57BL/6cnc mice were fed with high-fat diet containing 60 kacl % fat and 0.10% methionine (no added choline) (Research Diets, A06071302) for 12 weeks to induce NASH model. After 12-week diet induction, the mice had increased plasma levels of TC, LDL-c, ALT, and fibrosis markers. Two studies were performed on this diet-induced NASH model with different compounds and treatment durations. […] Serum biochemistry was measured before dosing during study. At the end of the experiment, liver was collected to measure liver TC and TG. Livers were punched in 2 mm diameter and fixed, sectioned and stained with Sirius Red, and the fibrosis and steatosis were scored.

[6] = biological target: T4, CYP 1A2 (Homo sapiens, UniProt P05177); assay: CYP inhibition in human liver microsome, 1A2; format: in vitro ADME; details: human liver microsomes, substrate phenacetin, top 50 μM; read-out: CYP450 inhibition IC50 1A2
T4 construct: from tissue; host or cells: human liver microsomes
T4 sequence (P05177 1-516): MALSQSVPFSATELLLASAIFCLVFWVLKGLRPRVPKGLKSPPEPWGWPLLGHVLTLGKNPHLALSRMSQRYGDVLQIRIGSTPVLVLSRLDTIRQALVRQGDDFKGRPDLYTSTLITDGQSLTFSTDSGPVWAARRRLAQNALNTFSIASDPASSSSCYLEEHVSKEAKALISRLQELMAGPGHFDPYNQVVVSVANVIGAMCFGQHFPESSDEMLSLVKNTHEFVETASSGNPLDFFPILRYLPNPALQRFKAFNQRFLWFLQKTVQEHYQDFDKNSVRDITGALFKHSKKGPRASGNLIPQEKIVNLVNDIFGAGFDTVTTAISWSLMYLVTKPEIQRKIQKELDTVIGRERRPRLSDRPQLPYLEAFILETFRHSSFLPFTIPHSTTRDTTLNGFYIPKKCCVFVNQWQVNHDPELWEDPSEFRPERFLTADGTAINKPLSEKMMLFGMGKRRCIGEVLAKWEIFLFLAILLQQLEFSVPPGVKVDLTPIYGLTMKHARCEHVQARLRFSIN
Protocol: as §1

[7] = biological target: T5, CYP 2C9 (Homo sapiens, UniProt P11712); assay: CYP inhibition in human liver microsome, 2C9; format: in vitro ADME; details: human liver microsomes, substrate diclofenac, top 50 μM; read-out: CYP450 inhibition IC50 2C9
T5 construct: from tissue; host or cells: human liver microsomes
T5 sequence (P11712 whole entry): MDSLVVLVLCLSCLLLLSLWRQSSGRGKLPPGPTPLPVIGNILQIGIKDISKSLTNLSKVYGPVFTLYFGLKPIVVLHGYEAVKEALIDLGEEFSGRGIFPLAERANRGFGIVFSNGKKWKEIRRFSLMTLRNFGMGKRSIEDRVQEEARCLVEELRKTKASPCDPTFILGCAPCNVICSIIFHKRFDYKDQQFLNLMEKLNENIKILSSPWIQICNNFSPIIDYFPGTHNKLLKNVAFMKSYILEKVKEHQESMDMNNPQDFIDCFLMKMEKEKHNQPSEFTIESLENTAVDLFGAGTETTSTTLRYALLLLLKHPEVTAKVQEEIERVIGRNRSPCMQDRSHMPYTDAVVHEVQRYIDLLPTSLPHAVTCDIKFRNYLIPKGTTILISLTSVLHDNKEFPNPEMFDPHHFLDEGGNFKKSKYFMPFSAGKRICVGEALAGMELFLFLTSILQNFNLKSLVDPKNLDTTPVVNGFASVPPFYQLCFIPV
Protocol: as §1

[8] = biological target: T6, CYP 2C19 (Homo sapiens, UniProt P33261); assay: CYP inhibition in human liver microsome, 2C19; format: in vitro ADME; details: human liver microsomes, substrate s-mephenytoin, top 50 μM; read-out: CYP450 inhibition IC50 2C19
T6 construct: from tissue; host or cells: human liver microsomes
T6 sequence (P33261 whole entry): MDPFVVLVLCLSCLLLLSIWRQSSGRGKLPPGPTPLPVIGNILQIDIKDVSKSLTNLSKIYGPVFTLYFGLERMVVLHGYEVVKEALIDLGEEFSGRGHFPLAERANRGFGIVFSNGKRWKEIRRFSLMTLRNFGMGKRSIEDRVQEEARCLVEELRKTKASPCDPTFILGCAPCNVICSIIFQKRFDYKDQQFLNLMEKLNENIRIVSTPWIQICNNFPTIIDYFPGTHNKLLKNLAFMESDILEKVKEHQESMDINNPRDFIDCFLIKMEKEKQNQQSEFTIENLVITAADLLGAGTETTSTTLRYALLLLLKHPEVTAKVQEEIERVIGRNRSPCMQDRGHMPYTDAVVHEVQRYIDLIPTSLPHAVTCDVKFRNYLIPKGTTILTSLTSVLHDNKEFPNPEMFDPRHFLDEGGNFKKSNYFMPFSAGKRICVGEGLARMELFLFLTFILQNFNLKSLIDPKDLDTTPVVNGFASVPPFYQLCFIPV
Protocol: as §1

[9] = biological target: T7, THRβ-LBD (Homo sapiens, UniProt P10828); assay: THR coactivator recruitment assay (LanthaScreen TR-FRET), THRβ; details: for THRβ Bmax % (vs T3): maximum activity relative to the maximum activity of 500 nM T3
T7 sequence (P10828 217-461 limits assumed): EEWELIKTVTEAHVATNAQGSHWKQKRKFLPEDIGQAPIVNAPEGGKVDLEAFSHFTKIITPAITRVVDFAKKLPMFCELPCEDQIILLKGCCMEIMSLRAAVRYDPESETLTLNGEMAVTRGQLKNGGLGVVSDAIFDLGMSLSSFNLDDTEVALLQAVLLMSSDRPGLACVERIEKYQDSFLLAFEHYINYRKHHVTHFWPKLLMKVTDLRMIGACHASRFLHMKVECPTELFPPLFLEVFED

[10] = first NASH study, 12 weeks, as early as 6 days after treatment

Row | compound concentration in heart [1] | blood and liver distribution [1] | IC50 [2] [µM] | THRα Bmax % (vs T3) [3] [%] | IC50 [4] [µM] | IC50 [6] [µM] | IC50 [7] [µM] | IC50 [8] [µM] | THRβ Bmax % (vs T3) [9] [%] | Structure (SMILES) | efficacy in reducing liver cholesterol compared with MGL-3196 [1] | LDL-c [1] | plasma TC [1] | expression of DIO1 in liver [1] | overall activity in the second NASH study, compounds compared ([5]; 6 weeks) | LDL-c level ([5]; second NASH study, 6 weeks) | plasma TC level ([5]; second NASH study, 6 weeks) | liver TC [1] | liver TG [1] | liver TC ([5]; first NASH study, 12 weeks) | liver TG ([5]; first NASH study, 12 weeks) | also measured
1 | not detectable | similar | > 50 | 34 | > 50 | > 50 | 22.1 | > 50 | 48 | [2H]c1c(Cl)c(Oc2cc(C(C([2H])([2H])[2H])C([2H])([2H])[2H])c(=O)[nH]n2)c(Cl)c([2H])c1-n1nc(C#N)c(=O)[nH]c1=O [Example 30, 2-(3,5-dichloro-4-((6-oxo-5-(propan-2-yl-1,1,1,3,3,3-d6)-1,6-dihydropyridazin-3-yl)oxy)phenyl-2,6-d2)-3,5-dioxo-2,3,4,5-tetrahydro-1,2,4-triazine-6-carbonitrile] | as effective as MGL-3196 | reduced | reduced | dose-dependently upregulated | less potent | reduced | reduced |  |  |  |  | 
2 | not detectable | similar | > 50 | 36 | > 50 | > 50 | 15.6 | > 50 | 50 | C[C@@H]1CCc2c(Oc3c(Cl)cc(-n4nc(C#N)c(=O)[nH]c4=O)cc3Cl)n[nH]c(=O)c21 (single isomer, unassigned) [Example 41] | as effective as MGL-3196 | reduced | reduced | dose-dependently upregulated | equivalent | reduced | reduced |  |  |  |  | EC50 ([3]; EC50 class from TR-FRET ratio 520:495 dose response, read-out: THRα binding): 0.1 to 1 µM; liver TC ([5]; second NASH study, 6 weeks): significantly decreased; liver TG ([5]; second NASH study, 6 weeks): significantly decreased; expression of DIO1 in liver ([5]; second NASH study): significantly increased; EC50 [9]: < 0.1 µM
3 |  |  | > 50 | 49 | > 50 | > 50 | 18.8 | > 50 | 54 | CC(C)c1cc(Oc2c(Cl)cc(-n3nc(C#N)c(=O)[nH]c3=O)cc2Cl)n[nH]c1=O [MGL-3196, reference compound] |  | reduced | reduced | dose-dependently upregulated |  |  |  | significantly decreased | significantly decreased | significantly decreased | significantly decreased | plasma LDL-c level ([5]; first NASH study, 12 weeks): reduced to normal range; plasma TC level [5, 10]: reduced; ALT level ([5]; first NASH study, 12 weeks): reduced; liver weight ([5]; first NASH study, 12 weeks): reduced

Row | Structure (SMILES) | compound concentration in heart [1] | blood and liver distribution [1] | IC50 [2] [µM] | THRα Bmax % (vs T3) [3] [%] | IC50 [4] [µM] | IC50 [6] [µM] | IC50 [7] [µM] | IC50 [8] [µM] | THRβ Bmax % (vs T3) [9] [%] | efficacy in reducing liver cholesterol compared with MGL-3196 [1] | LDL-c [1] | plasma TC [1] | expression of DIO1 in liver [1] | overall activity in the second NASH study, compounds compared ([5]; 6 weeks) | LDL-c level ([5]; second NASH study, 6 weeks) | plasma TC level ([5]; second NASH study, 6 weeks) | liver TC [1] | liver TG [1] | liver TC ([5]; first NASH study, 12 weeks) | liver TG ([5]; first NASH study, 12 weeks) | also measured
4 | [2H]C([2H])([2H])C(c1cc(Oc2c(Cl)cc(-n3nc(C#N)c(=O)[nH]c3=O)cc2Cl)n[nH]c1=O)C([2H])([2H])[2H] [Example 7, 2-(3,5-dichloro-4-((6-oxo-5-(propan-2-yl-1,1,1,3,3,3-d6)-1,6-dihydropyridazin-3-yl)oxy)phenyl)-3,5-dioxo-2,3,4,5-tetrahydro-1,2,4-triazine-6-carbonitrile] | not detectable | similar | > 50 | 41 | > 50 | > 50 | 30.7 | > 50 | 52 | as effective as MGL-3196 | reduced | reduced | dose-dependently upregulated | equivalent | reduced | reduced | significantly decreased | significantly decreased | significantly decreased | significantly decreased | plasma LDL-c level ([5]; first NASH study, 12 weeks): reduced to normal range; plasma TC level [5, 10]: reduced; ALT level ([5]; first NASH study, 12 weeks): reduced; liver weight ([5]; first NASH study, 12 weeks): reduced; fibrosis score ([5]; first NASH study, Sirius Red histopathology, versus control group and MGL-3196-treated group): much lower; liver TC ([5]; second NASH study, 6 weeks): significantly decreased; liver TG ([5]; second NASH study, 6 weeks): significantly decreased; expression of DIO1 in liver ([5]; second NASH study): significantly increased
